Experiments:
Hartley male guinea pigs = test: Effect on blood pressure in anesthetized guinea pigs; type: in vivo, guinea pig; settings: tamsulosin 0.01 mg/kg, Example 20 0.1 mg/kg
Method: Hartley male guinea pigs (Slc) weighing 300 to 350 g was anesthetized with urethane (1.2 g/kg), and retained, a cervical region was incised to expose a left common carotid artery. A polyethylene tube filled with physiological saline containing heparin (10 U.I./ml) was inserted into an artery, and blood pressure was measured with a pressure transducer. A cannulae for administering test compound was inserted into a vein at an end of left hind leg, and a test compound dissolved in distilled water was administered therethrough at 0.5 mL/kg. The blood pressure was recorded at 20 Hz using an analogue data inputting apparatus (MP-100, BIOPAC Systems), and analyzed by analyzing software (AcqKnowledge 3.5.3, BIOPAC Systems). Example compound and tamsulosin were studied for a dose at which effects were recognized in the aforementioned test a (Pressure Flow Study), and an average blood pressure just before administration of test compound and an average blood pressure 15 minutes after administration were measured. Data were statistically treated by Paired t-test.

[1] = target: T1, human erythrocyte-derived acetylcholinesterase (Homo sapiens, UniProt P22303); test: Measurement of acetylcholinesterase inhibitory activity (acetylthiocholine / Ellman method); type: biochemical; settings: 50% inhibition concentration, repeated at least three times, read-out: AchE: IC50
T1 construct: Human erythrocyte-drived acetylcholinesterase (Sigma) was dissolved in distilled water; purchased Sigma; host or cells: human erythrocytes (natural source)
T1 sequence (P22303 32-617 isoform P22303-2 limits assumed): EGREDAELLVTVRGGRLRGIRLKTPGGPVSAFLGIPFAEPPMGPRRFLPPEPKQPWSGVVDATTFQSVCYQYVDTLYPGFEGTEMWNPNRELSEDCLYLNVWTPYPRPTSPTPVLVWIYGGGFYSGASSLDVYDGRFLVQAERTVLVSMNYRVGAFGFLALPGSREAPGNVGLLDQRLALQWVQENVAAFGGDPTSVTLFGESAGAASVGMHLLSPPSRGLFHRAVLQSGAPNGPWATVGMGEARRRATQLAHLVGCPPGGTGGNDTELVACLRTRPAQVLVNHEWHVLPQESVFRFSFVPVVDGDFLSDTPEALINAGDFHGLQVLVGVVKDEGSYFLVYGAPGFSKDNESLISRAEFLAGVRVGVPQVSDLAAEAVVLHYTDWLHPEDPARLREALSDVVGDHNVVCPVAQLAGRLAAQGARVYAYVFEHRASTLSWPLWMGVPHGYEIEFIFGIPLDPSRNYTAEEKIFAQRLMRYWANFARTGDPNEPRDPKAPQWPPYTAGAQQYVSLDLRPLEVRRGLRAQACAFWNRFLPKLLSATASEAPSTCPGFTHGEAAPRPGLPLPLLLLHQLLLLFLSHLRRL
Method: a) Measurement of Acetylcholinesterase Inhibitory Activity
Acetylcholinesterase inhibitory activity of Example compounds was measured using human erythrocyte-derived acetylcholinesterase by an acetylthiocholine method (Ellman method).
Human erythrocyte-drived acetylcholinesterase (Sigma) was dissolved in distilled water to the concentration of 0.2 IU/mL to obtain an enzyme specimen. 20 μL of a drug solution, 30 μL of 80 mM Tris-HCL (pH 7.4), 50 μL of an enzyme specimen and 50 μL of 5 mM 5,5-dithio-bis (2-nitrobenzoic acid)(Sigma) were dispensed on a 96-well microplate, and this was shaken for 10 seconds. 50 μL of 4 mM acetylthiocholine iodide (Sigma) was added, this was shaken again and, immediately after, increase in absorbance at 414 nm was measured at 30 second intervals for 10 minutes. Enzyme activity was measured by the following equation: R=5.74×10^−7×ΔA (wherein R represents enzyme activity (mol), and ΔA represents increase in absorbance at 414 nm)
Regarding each compound, the experiment was repeated at least three times to obtain 50% inhibition concentration (IC50). According to the similar method to the above-mentioned, acetylcholinesterase inhibitory activity of distigmine which is a known acetylcholinesterase inhibitor was measured.

[2] = test system: Hartley male guinea pigs loaded with phenylephrine; test: Pressure Flow Study using guinea pigs loaded with phenylephrine; type: in vivo, guinea pig; settings: i.v., tamsulosin 0.01 mg/kg, Example 20 0.1 mg/kg, urethane-anesthetized, phenylephrine 3 μg/animal/min
Method: Hartley male guinea pigs (Slc) weighing 300 to 350 g was anesthetized with urethane (1.2 g/kg, i.p.), and a median was incised to expose bladder. Two polyethylene tubes were inserted into bladder, and one of them was used for injecting a physiological saline and the other was used for measuring a bladder internal pressure. A cannulae was inserted into a left femoral vein, and phenylephrine was continuously administered intravenously at 3 μg/animal/min until the completion of experiment. A physiological saline was injected into bladder at a rate of 0.3 mL/min, and injection was stopped when urination was confirmed. The urinated urine weight was measured with an electron balance (HX-400, A & D) at real time. Analogue data of bladder internal pressure and urine weight were inputted into an AD transducer (MP-100, BIOPAC Systems), and digital signals were analyzed with exclusive analyzing software (AcqKnowledge 3.5.3, BIOPAC Systems). The sampling rate of data was 10 Hz, and data of urination amount and urine flow rate were subjected to a lowcut filter at 0.5 Hz in order to remove noises. The value of urine weight was differentiated to calculate urine flow rate (Q), and maximum urine flow rate (Qmax) at urination and bladder internal pressure (Pves (Qmax)) at maximum urine flow were calculated. The urination weight 1 g was converted into 1 mL to calculate the urination amount, and divided by bladder volume to obtain voiding efficiency (Voiding Efficiency). Example compound was dissolved in DMSO, and the solution was intravenously administered at 0.5 mL/kg. 10 minutes after administration of test compound, urinary reflection was recorded again, and change in urine flow rate (ΔQmax), and change in bladder internal pressure (ΔPves(Qmax)) and voiding efficiency were assessed. The change in urine flow rate (ΔQmax) and change in bladder internal pressure (ΔPves. (Qmax)) were an amount of change (Δ value) obtained by subtracting each value before administration of test compound from each value after administration, and voiding efficiency was assessed by a relative value (% of pre-value) of after administration of test compound relative to before administration. Tamsulosin which is a known α1 receptor antagonist was measured similarly. A significance diffenence was tested by a Dunnett test by comparing with each value of a vehicle (DMSO)-administered group.

[3] = 10 minutes after administration minus before

COc1ccccc1CCNCCCCCC(=O)c1cc2c3c(c1)CCN3C(=O)CC2.Cl [Example 20, 8-(6-[[2-(2-Methoxyphenyl)ethyl]amino]hexanoyl]-1,2,5,6-tetrahydro-4H-pyrrolo[3,2,1-ij]quinolin-4-one hydrochloride]
Blood pressure, after administration (Hartley male guinea pigs; average blood pressure 15 minutes after i.v. administration): 54.6 ± 2.8 mmHg
Blood pressure, before administration (Hartley male guinea pigs; average blood pressure just before i.v. administration): 53.5 ± 3.6 mmHg
IC50 [1]: 179 nM
change in bladder internal pressure (ΔPves(Qmax)) [2, 3]: −1.73 ± 1.54 cmH2O
change in maximum urine flow rate (ΔQmax) [2, 3]: 0.060 ± 0.016 mL/s
voiding efficiency (% of pre-value) ([2]; after administration relative to before): 150.1 ± 20.1 %

— patent US7132547B2, “Preventives/remedies for urinary disturbance” (priority 2001, dated 2006)
